Columns and labels:
[1] = system: platinum sensitive recurrent ovarian cancer; settings: cited from earlier work
[2] = PRO-001 (ProGem1) first-in-human phase I study, pharmacokinetics; assay type: in vivo; settings: compared with gemcitabine
Description: PRO-001 (aka ProGem1) was a first-in-human (FIH), phase I, open label, two stage study to investigate the safety, tolerability, clinical efficacy, pharmacokinetics (PK) and pharmacodynamics (PD) of NUC-1031 given in two parallel dosing schedules in subjects with advanced solid malignancies (EudraCT Number: 2011-005232-26). Subjects had the following tumour types at study entry: colorectal cancer (7 subjects), unknown primary (3), ovarian cancer (13), breast cancer (4), pancreatic cancer (9), cholangiocarcinoma (7), uterine or endometrial cancer (3), cervix cancer (2), lung cancer (6), mesothelioma (3) and thymus cancer (1). The study confirmed NUC-1031′s anti-tumour activity in patients with advanced progressive cancers, who have exhausted all standard therapeutic options, many of whom were resistant or refractory to prior nucleoside analogue therapy, including gemcitabine.

Row | Structure (SMILES) | response rate [1] [%] | median PFS ([1]; median follow-up of 17 months) [months] | levels of the potentially toxic metabolite dFdU released [2]
1 | N.N.O=C([O-])C1(C(=O)[O-])CCC1.[Pt+2] [carboplatin] | 30.9 | 5.8 | 
2 | C[C@H](NP(=O)(OC[C@H]1O[C@@H](n2ccc(N)nc2=O)C(F)(F)[C@@H]1O)Oc1ccccc1)C(=O)OCc1ccccc1 (stereo partly drawn) [NUC-1031, 2′-Deoxy-2′,2′-difluoro-D-cytidine-5′-O-[phenyl (benzoxy-L-alaninyl)] phosphate] |  |  | lower levels
